What all share (assay type): cell-based
One assay has as its target T1, human TLR8 (Homo sapiens, UniProt Q9NR97).
T1 construct: host or cells: HEK-Blue cells
T1 sequence (Q9NR97 27-1041): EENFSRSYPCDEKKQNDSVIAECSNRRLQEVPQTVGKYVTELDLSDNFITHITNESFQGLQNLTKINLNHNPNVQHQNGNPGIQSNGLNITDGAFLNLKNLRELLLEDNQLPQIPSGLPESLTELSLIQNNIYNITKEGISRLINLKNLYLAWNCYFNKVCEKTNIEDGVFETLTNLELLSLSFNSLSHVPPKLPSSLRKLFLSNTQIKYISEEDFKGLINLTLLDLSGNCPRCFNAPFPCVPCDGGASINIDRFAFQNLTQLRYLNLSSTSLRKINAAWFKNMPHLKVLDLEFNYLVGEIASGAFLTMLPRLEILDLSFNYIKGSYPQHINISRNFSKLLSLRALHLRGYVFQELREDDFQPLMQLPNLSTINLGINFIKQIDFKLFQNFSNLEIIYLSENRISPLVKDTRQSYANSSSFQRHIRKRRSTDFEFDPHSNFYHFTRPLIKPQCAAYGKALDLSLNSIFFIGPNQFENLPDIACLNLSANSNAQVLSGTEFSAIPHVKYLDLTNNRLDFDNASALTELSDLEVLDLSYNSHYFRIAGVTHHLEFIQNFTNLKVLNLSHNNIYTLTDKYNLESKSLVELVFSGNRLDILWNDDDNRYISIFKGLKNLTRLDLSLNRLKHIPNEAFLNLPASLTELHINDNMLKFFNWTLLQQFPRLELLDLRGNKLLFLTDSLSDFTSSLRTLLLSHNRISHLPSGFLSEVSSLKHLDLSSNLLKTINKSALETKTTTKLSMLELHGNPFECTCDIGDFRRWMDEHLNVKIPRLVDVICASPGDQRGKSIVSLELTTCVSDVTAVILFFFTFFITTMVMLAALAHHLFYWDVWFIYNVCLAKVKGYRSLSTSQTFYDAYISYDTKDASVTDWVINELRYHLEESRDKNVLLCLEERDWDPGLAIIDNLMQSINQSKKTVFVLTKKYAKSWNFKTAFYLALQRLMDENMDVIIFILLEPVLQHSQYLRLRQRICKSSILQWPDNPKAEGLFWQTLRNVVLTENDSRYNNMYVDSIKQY
Description: TLR8 inhibition reporter assay (HEK-Blue SEAP). Particulars: HEK-Blue cells overexpressing human TLR8, stimulated with R848 15.9 μM, 22 hour incubation. The procedure, abridged: (§1)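 Percent inhibition reflects SEAP reduction after 22 h at 37° C, relative to agonist-plus-DMSO and known-inhibitor controls. Compounds (0.05 nM to 50 μM) were added 30 min before agonist: TLR9 cells received ODN2006 5 nM, TLR8 cells R848 15.9 μM, TLR7 cells gardiquimod 7.5 μM; human receptor-expressing HEK-Blue reporter lines.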
(Reporter assays use an easily measured gene product as a stand-in for the process of interest.)

The target in a further assay is T2, human TLR9 (Homo sapiens, UniProt Q9NR96).
T2 construct: host or cells: HEK-Blue cells
T2 sequence (Q9NR96 26-1032): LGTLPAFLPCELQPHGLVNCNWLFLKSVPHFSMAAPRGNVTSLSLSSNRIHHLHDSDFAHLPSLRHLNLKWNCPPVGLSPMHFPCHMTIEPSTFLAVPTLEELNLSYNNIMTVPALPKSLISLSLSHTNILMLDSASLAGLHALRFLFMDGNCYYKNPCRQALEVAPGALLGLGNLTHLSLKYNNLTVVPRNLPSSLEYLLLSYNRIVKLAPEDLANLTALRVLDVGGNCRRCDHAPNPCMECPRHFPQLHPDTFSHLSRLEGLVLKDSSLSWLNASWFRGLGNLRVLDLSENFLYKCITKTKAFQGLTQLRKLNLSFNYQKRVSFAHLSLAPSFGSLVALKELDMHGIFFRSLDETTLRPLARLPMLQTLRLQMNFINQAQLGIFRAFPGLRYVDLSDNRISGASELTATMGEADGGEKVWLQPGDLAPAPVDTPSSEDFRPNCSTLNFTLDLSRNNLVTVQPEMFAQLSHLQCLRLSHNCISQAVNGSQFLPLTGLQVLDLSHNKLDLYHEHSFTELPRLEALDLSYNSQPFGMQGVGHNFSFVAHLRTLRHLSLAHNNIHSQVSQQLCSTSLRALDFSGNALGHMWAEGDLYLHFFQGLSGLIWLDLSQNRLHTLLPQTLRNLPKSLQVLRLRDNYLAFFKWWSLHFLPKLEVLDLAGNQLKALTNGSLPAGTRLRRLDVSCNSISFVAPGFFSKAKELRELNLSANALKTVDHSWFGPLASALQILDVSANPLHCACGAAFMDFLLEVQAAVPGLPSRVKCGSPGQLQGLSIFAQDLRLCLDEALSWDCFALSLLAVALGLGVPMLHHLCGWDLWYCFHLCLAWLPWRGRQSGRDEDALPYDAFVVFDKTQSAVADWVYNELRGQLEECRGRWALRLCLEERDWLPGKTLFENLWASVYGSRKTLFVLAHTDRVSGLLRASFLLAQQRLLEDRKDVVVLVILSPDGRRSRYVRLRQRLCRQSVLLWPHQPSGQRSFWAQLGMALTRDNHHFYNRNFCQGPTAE
Description: TLR9 inhibition reporter assay (HEK-Blue SEAP). The following applies: HEK-Blue cells overexpressing human TLR9, stimulated with ODN2006 5 nM, 22 hour incubation. The procedure, abridged: as §1

The target of a further assay is T3, human TLR7 (Homo sapiens, UniProt Q9NYK1).
T3 construct: host or cells: HEK-Blue cells
T3 sequence (Q9NYK1 27-1049): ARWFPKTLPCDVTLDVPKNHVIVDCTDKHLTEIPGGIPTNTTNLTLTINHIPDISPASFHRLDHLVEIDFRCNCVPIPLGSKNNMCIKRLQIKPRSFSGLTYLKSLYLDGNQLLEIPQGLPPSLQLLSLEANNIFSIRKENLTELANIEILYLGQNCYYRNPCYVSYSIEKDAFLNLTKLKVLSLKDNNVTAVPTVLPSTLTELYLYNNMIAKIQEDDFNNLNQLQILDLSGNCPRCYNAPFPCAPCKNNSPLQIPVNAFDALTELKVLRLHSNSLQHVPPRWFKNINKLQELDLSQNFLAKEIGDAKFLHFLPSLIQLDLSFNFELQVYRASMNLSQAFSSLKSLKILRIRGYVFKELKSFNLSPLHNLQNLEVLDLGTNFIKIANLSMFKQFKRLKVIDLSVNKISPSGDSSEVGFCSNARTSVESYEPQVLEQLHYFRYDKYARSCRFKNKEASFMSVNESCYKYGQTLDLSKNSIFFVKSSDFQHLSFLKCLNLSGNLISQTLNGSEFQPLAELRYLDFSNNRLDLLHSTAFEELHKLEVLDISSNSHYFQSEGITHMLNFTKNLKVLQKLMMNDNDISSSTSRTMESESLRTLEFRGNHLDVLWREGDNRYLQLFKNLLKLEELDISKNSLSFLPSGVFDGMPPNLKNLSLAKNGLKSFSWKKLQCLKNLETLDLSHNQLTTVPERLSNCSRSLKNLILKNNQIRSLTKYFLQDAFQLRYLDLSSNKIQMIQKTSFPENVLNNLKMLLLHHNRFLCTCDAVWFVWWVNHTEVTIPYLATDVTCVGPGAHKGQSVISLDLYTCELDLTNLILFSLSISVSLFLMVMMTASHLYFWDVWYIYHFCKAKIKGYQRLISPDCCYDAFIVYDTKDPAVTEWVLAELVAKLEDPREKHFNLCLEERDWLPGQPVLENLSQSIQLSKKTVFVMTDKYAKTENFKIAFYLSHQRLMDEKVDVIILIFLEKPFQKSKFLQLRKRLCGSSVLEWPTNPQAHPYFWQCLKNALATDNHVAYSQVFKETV
Put plainly: TLR7 inhibition reporter assay (HEK-Blue SEAP). Particulars: HEK-Blue cells overexpressing human TLR7, stimulated with gardiquimod 7.5 μM, 22 hour incubation. Put shortly:
as §1

The structures appear in SMILES notation. pIC50: −log10 of the molar value.

Consider `Cc1cc2c(C3CCCNC3)n[nH]c2cc1-c1cc(C)c2ncnn2c1` (stereo not drawn) [Example 24, 8-methyl-6-(5-methyl-3-(piperidin-3-yl)-1H-indazol-6-yl)-[1,2,4]triazolo[1,5-a]pyridine], for which the pIC50 (in general, −log10 of the IC50, conventionally taken in molar units) on human TLR8 was 8.96; at human TLR9, 6.06; against human TLR7 it was 7.80.
For `Cc1cc2c(C3CCNCC3)n[nH]c2cc1-c1cc(C)c(=O)n(C)c1` [Example 25, 1,3-dimethyl-5-(5-methyl-3-(piperidin-4-yl)-1H-indazol-6-yl)pyridin-2(1H)-one], in that order: 7.98, 5.65 and 6.58.
In the same order, the values of `Cc1cc2c(C3CCNC3)n[nH]c2cc1-c1cc(C)c2ncnn2c1` (stereo not drawn) [Example 26, 8-methyl-6-(5-methyl-3-(pyrrolidin-3-yl)-1H-indazol-6-yl)-[1,2,4]triazolo[1,5-a]pyridine] are 8.82, 5.88 and 7.73.
For `Cc1cc(-c2cc(C)c3ncnn3c2)cc2[nH]nc(C3CCNCC3)c12` [Example 27, 8-methyl-6-(4-methyl-3-(piperidin-4-yl)-1H-indazol-6-yl)-[1,2,4]triazolo[1,5-a]pyridine], in that order: 7.59, 6.19 and 8.18.
On to `Cc1cc2c(C3CCC(NCCS(C)(=O)=O)CC3)n[nH]c2cc1-c1cc(C)c2ncnn2c1` (stereo not drawn) [Example 30, 4-(5-methyl-6-(8-methyl-[1,2,4]triazolo[1,5-a]pyridin-6-yl)-1H-indazol-3-yl)-N-(2-(methylsulfonyl)ethyl) cyclohexan-1-amine], for which the results for the pIC50 on human TLR8, against human TLR9 and against human TLR7 were 9.40, 5.17 and 7.82, respectively.
For `Cc1cc2c(C3CCC(NCCS(C)(=O)=O)CC3)n[nH]c2cc1-c1cc(C)c2ncnn2c1` (stereo not drawn) [Example 31, 4-(5-methyl-6-(8-methyl-[1,2,4]triazolo[1,5-a]pyridin-6-yl)-1H-indazol-3-yl)-N-(2-(methylsulfonyl)ethyl)cyclohexan-1-amine], in that order: 9.22, 5.21 and 7.40.
In the same order, the values of `Cc1cc2c(C3CCC(NC4CC4)CC3)n[nH]c2cc1-c1cc(C)c2ncnn2c1` (stereo not drawn) [Example 36, N-cyclopropyl-4-(5-methyl-6-(8-methyl-[1,2,4]triazolo[1,5-a]pyridin-6-yl)-1H-indazol-3-yl) cyclohexan-1-amine] are 9.70, 5.48 and 8.15.
In the same order, the values of `Cc1cc2c(C3CCC(NC4CC4)CC3)n[nH]c2cc1-c1cc(C)c2ncnn2c1` (stereo not drawn) [Example 37, N-cyclopropyl-4-(5-methyl-6-(8-methyl-[1,2,4]triazolo[1,5-a]pyridin-6-yl)-1H-indazol-3-yl)cyclohexan-1-amine] are 9.40, 5.29 and 7.91.
As for `Cc1cc2c(C3CCCN(C(=O)CN(C)C)C3)n[nH]c2cc1-c1cc(C)c2ncnn2c1` (stereo not drawn) [Example 40, 2-(dimethylamino)-1-(3-(5-methyl-6-(8-methyl-[1,2,4]triazolo[1,5-a]pyridin-6-yl)-1H-indazol-3-yl)piperidin-1-yl)ethan-1-one], the pIC50 against human TLR8 is 8.34; at human TLR9, 4.88; at human TLR7, 7.63.
For `Cc1cc2c(C3CCCN(CC(=O)N(C)C)C3)n[nH]c2cc1-c1cc(C)c2ncnn2c1` (stereo not drawn) [Example 41, N,N-dimethyl-2-(3-(5-methyl-6-(8-methyl-[1,2,4]triazolo[1,5-a]pyridin-6-yl)-1H-indazol-3-yl)piperidin-1-yl) acetamide], the values for the pIC50 on human TLR8, against human TLR9 and on human TLR7 were 8.72, 5.14 and 7.70, respectively.
In the same order, the values of `Cc1cc2c(C3CCCN(C4COC4)C3)n[nH]c2cc1-c1cc(C)c2ncnn2c1` (stereo not drawn) [Example 42, 8-methyl-6-(5-methyl-3-(1-(oxetan-3-yl)piperidin-3-yl)-1H-indazol-6-yl)-[1,2,4]triazolo[1,5-a]pyridine] are 9.05, 4.84 and 7.08.
As to `CNC1CCC(c2n[nH]c3cc(-c4cc(C)c5ncnn5c4)c(C)cc23)CC1` (stereo not drawn) [Example 44, N-methyl-4-(5-methyl-6-(8-methyl-[1,2,4]triazolo[1,5-a]pyridin-6-yl)-1H-indazol-3-yl)cyclohexan-1-amine], the results for the pIC50 at human TLR8, against human TLR9 and against human TLR7 were 8.72, 5.26 and 7.33, respectively.
For `COc1cc(-c2cc3[nH]nc(C4CCCNC4)c3cc2C)cn2ncnc12` (stereo not drawn) [Example 45, 8-methoxy-6-(5-methyl-3-(piperidin-3-yl)-1H-indazol-6-yl)-[1,2,4]triazolo[1,5-a]pyridine], in that order: 9.15, at most 4.30 and 7.72.

The values above are taken from patent US12172995B2, “Substituted indole and indazole compounds” (BRISTOL-MYERS SQUIBB COMPANY, priority 2018, dated 2024).
